Laboratory results from PubChem BioAssay (NCI).
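Protocol summary: plate cells (96-well), add compound at 5 concentrations, incubate 48 h, interpolate endpoints linearly. The concentration for full growth arrest is given as TGI.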

What was measured:
Assay in all cases: NCI tumour cell line growth inhibition, 48 h
786-0 renal = tested on: 786-0 renal
A549 NSCLC = tested on: A549 NSCLC
ACHN renal = tested on: ACHN renal
BT-549 breast = tested on: BT-549 breast
CAKI-1 renal = tested on: CAKI-1 renal
CCRF-CEM leukemia = tested on: CCRF-CEM leukemia
COLO 205 colon = tested on: COLO 205 colon
DU-145 prostate = tested on: DU-145 prostate
EKVX NSCLC = tested on: EKVX NSCLC
HCC-2998 colon = tested on: HCC-2998 colon
HCT-116 colon = tested on: HCT-116 colon
HCT-15 colon = tested on: HCT-15 colon
HL-60(TB) leukemia = tested on: HL-60(TB) leukemia
HOP-62 NSCLC = tested on: HOP-62 NSCLC
HOP-92 NSCLC = tested on: HOP-92 NSCLC
HS 578T breast = tested on: HS 578T breast
HT29 colon = tested on: HT29 colon
IGROV1 ovarian = tested on: IGROV1 ovarian
K-562 leukemia = tested on: K-562 leukemia
KM12 colon = tested on: KM12 colon
LOX IMVI melanoma = tested on: LOX IMVI melanoma
M14 melanoma = tested on: M14 melanoma
MALME-3M melanoma = tested on: MALME-3M melanoma
MCF7 breast = tested on: MCF7 breast
MDA-MB-231 breast = tested on: MDA-MB-231 breast
MDA-MB-435 = tested on: MDA-MB-435
MOLT-4 leukemia = tested on: MOLT-4 leukemia
NCI-H226 lung = tested on: NCI-H226 lung
NCI-H23 lung = tested on: NCI-H23 lung
NCI-H460 lung = tested on: NCI-H460 lung
NCI-H522 lung = tested on: NCI-H522 lung
NCI/ADR-RES ovarian = tested on: NCI/ADR-RES ovarian
OVCAR-3 ovarian = tested on: OVCAR-3 ovarian
OVCAR-4 ovarian = tested on: OVCAR-4 ovarian
OVCAR-5 ovarian = tested on: OVCAR-5 ovarian
OVCAR-8 ovarian = tested on: OVCAR-8 ovarian
PC-3 prostate = tested on: PC-3 prostate
RPMI-8226 leukemia = tested on: RPMI-8226 leukemia
RXF 393 renal = tested on: RXF 393 renal
SF-268 CNS = tested on: SF-268 CNS
SF-295 CNS = tested on: SF-295 CNS
SF-539 CNS = tested on: SF-539 CNS
SK-MEL-2 melanoma = tested on: SK-MEL-2 melanoma
SK-MEL-28 melanoma = tested on: SK-MEL-28 melanoma
SK-MEL-5 melanoma = tested on: SK-MEL-5 melanoma
SK-OV-3 ovarian = tested on: SK-OV-3 ovarian
SN12C renal = tested on: SN12C renal
SNB-19 CNS = tested on: SNB-19 CNS
SNB-75 CNS = tested on: SNB-75 CNS
SR leukemia = tested on: SR leukemia
SW-620 colon = tested on: SW-620 colon
T-47D breast = tested on: T-47D breast
TK-10 renal = tested on: TK-10 renal
U251 CNS = tested on: U251 CNS
UACC-257 melanoma = tested on: UACC-257 melanoma
UACC-62 melanoma = tested on: UACC-62 melanoma
UO-31 renal = tested on: UO-31 renal

CCCCCCCCC[C@@H]1C[C@@H]2CCC3C(C(=O)OC)=C(C)NC(=N1)N32 (some centres not stated)
TGI (786-0 renal): 18.9 µM
TGI (A549 NSCLC): 32.6 µM
TGI (ACHN renal): 32.1 µM
TGI (BT-549 breast): 24.4 µM
TGI (CAKI-1 renal): 37.8 µM
TGI (CCRF-CEM leukemia): > 100 µM
TGI (COLO 205 colon): 15.1 µM
TGI (DU-145 prostate): 21.9 µM
TGI (EKVX NSCLC): 26.8 µM
TGI (HCC-2998 colon): 8.53 µM
TGI (HCT-116 colon): 17.3 µM
TGI (HCT-15 colon): 38.3 µM
TGI (HL-60(TB) leukemia): 26.9 µM
TGI (HOP-62 NSCLC): 26.9 µM
TGI (HOP-92 NSCLC): 27.3 µM
TGI (HS 578T breast): 34.7 µM
TGI (HT29 colon): 22.2 µM
TGI (IGROV1 ovarian): 19.4 µM
TGI (K-562 leukemia): 72.2 µM
TGI (KM12 colon): 14 µM
TGI (LOX IMVI melanoma): 26.5 µM
TGI (M14 melanoma): 21.8 µM
TGI (MALME-3M melanoma): 29 µM
TGI (MCF7 breast): 15.9 µM
TGI (MDA-MB-231 breast): 20 µM
TGI (MDA-MB-435): 6.04 µM
TGI (MOLT-4 leukemia): > 100 µM
TGI (NCI-H226 lung): 29.2 µM
TGI (NCI-H23 lung): 16.3 µM
TGI (NCI-H460 lung): 16.3 µM
TGI (NCI-H522 lung): 9.82 µM
TGI (NCI/ADR-RES ovarian): 52.2 µM
TGI (OVCAR-3 ovarian): 11.6 µM
TGI (OVCAR-4 ovarian): 25.4 µM
TGI (OVCAR-5 ovarian): 35.6 µM
TGI (OVCAR-8 ovarian): 23.7 µM
TGI (PC-3 prostate): 18.3 µM
TGI (RPMI-8226 leukemia): > 100 µM
TGI (RXF 393 renal): 8.55 µM
TGI (SF-268 CNS): 23.5 µM
TGI (SF-295 CNS): 23.6 µM
TGI (SF-539 CNS): 12.2 µM
TGI (SK-MEL-2 melanoma): 26.5 µM
TGI (SK-MEL-28 melanoma): > 100 µM
TGI (SK-MEL-5 melanoma): 20.4 µM
TGI (SK-OV-3 ovarian): 25 µM
TGI (SN12C renal): 32.5 µM
TGI (SNB-19 CNS): 18.6 µM
TGI (SNB-75 CNS): 19.8 µM
TGI (SR leukemia): > 100 µM
TGI (SW-620 colon): > 100 µM
TGI (T-47D breast): 25.3 µM
TGI (TK-10 renal): 29.1 µM
TGI (U251 CNS): 16.8 µM
TGI (UACC-257 melanoma): 27 µM
TGI (UACC-62 melanoma): 17.4 µM
TGI (UO-31 renal): 30.9 µM
